Source: patent US10278957B2, “Opioid agonist peptides and uses thereof” (Protagonist Therapeutics, Inc., priority 2017, dated 2019)
Square brackets hold non-standard residues; d marks the D form. Peptide text beside a SMILES is read from it. Phe(2,6-Me2,4-CONH2) = Cc1cc(C(N)=O)cc(C)c1C[C@H](N)C(=O)O; Bip = N[C@@H](Cc1ccc(-c2ccccc2)cc1)C(=O)O; Phe(4-CN) = N#Cc1ccc(C[C@H](N)C(=O)O)cc1; Dmt = Cc1cc(O)cc(C)c1C[C@H](N)C(=O)O; hPhe = N[C@@H](CCc1ccccc1)C(=O)O; dTic = O=C(O)[C@H]1Cc2ccccc2CN1; β3hF = N[C@H](CC(=O)O)Cc1ccccc1; Nle = CCCC[C@H](N)C(=O)O; dNMeA = CN[C@H](C)C(=O)O; Sar = CNCC(=O)O

Columns and labels:
[1] = biological target: T1, μ-opioid receptor (MOR) (Homo sapiens, UniProt P35372); assay: MOR agonist cAMP assay (HitHunter cAMP, forskolin-stimulated); format: cell-based
T1 construct: host or cells: cAMP Hunter CHO-K1 OPRM1 Gαi cell line
Description: (§1) The HitHunter® cAMP chemiluminescent assay kit (DiscoveRx, Cat# 90-0075 SM25) was used to detect cAMP production in cAMP Hunter™ Gαi cell lines over expressing either Human-ORPM1 (Discoverx, Catalog# 95-0107C2) or Human-ORPD1 (DiscoveRx, Catalog# 95-0108C2). Opioid agonist binding to the Gαi receptors inhibits the intracellular cAMP accumulation induced by forskolin, which activates adenylate cyclase and increases intracellular levels of cAMP.
(§2) Cells were cultured in media consisting of Ham's F-12 Nutrient Mix (Life Technologies, Catalog#31765035), 10% FBS (Life Technologies, Catalog# 16140-071), 4 mM GlutaMAX (Life Technologies, Catalog#35050-061), […] (Life Technologies), 100 ug/ml of Penn-Strep (Life Technologies) and 0.5 mg/ml Geneticin (Life Technologies, Catalog# 10131-027). The cultures were maintained at 37° C. under 5% CO2.
(§3) In preparation for cAMP assay, the cells were seeded at a density of 300,000 cells/ml in 100 ul of media/well in 96-well microplate. Wells that were designated for cAMP standards were left empty.
(§4) Opioid agonist serial dilutions were prepared in separate dilution plate (11-point series of 3× (3-fold) dilution) in Cell Assay buffer, including 3× forskolin for Gαi target. For Hunter CHO-K1 OPRM1 or CHO-K1 OPRD1 Gαi Cell Lines, the final forskolin concentration was 20 uM.
(§5) 15 ul of each 3× opioid agonist serial dilution was added in the presence of forskolin in duplicate to the designated wells. The final concentration of each dilution was at 3× of the final screening concentration. The assay plate was incubated for 30 min, at 37° C. under 5% CO2.
(§6) Cellular cAMP concentrations were measured using the HitHunter cAMP Assay kit following the manufacturer's protocol. HitHunter cAMP assay is a gain-of-signal competitive immunoassay based on Enzyme Fragment Complementation (EFC) technology. The kit uses β-galactosidase (β-gal) enzyme split into Enzyme Donor (ED) and Enzyme Acceptor (EA). The cellular cAMP and ED-labelled cAMP compete for anti-cAMP antibody. […] When cellular cAMP level is high, it competes for the anti-cAMP antibody, thereby releasing ED-cAMP to complement with EA to produce a luminescent signal. The amount of signal is directly proportional to the amount of cAMP in cells and can be quantified using cAMP standards. The assay plates were read using a PerkinElmer Envision instrument to detect the chemiluminescence signal in each well (luminescence reader at 0.1 to 1 second/well). Data analysis was performed using Graphpad Prism 7.EC50 was calculated by nonlinear regression, using the four-parameter hill equation.

[2] = biological target: T2, δ-opioid receptor (DOR) (Homo sapiens, UniProt P41143); assay: DOR agonist cAMP assay (HitHunter cAMP, forskolin-stimulated); format: cell-based
T2 construct: host or cells: cAMP Hunter CHO-K1 OPRD1 Gαi cell line
Description: as §1, §2, §3, §4, §5, §6

T1 sequence (P35372 whole entry): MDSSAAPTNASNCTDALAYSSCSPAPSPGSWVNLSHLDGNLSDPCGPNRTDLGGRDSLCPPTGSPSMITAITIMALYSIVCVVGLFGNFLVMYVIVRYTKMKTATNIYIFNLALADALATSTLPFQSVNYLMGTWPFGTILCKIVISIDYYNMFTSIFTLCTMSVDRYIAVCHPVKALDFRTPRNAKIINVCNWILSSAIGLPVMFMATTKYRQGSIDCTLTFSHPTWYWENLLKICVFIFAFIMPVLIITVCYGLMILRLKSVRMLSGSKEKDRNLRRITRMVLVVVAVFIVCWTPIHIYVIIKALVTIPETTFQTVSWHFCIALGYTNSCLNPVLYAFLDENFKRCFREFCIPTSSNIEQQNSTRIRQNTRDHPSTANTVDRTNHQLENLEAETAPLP
T2 sequence (P41143 whole entry): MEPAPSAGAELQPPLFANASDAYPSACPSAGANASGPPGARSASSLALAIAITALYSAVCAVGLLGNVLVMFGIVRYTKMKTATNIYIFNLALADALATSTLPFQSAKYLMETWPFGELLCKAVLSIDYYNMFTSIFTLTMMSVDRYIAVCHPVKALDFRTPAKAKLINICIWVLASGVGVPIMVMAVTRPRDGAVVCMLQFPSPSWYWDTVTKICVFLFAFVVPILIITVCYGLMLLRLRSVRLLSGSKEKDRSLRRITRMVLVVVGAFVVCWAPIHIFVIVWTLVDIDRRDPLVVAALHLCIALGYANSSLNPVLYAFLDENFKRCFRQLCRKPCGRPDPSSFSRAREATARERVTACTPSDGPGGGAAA

Cc1cc(O)cc(C)c1C[C@H](N)C(=O)N(C)[C@H](C)C(=O)N[C@@H](Cc1ccccc1)C(=O)N(C)CC(N)=O [compound 10] (H-[Dmt][dNMeA]F[Sar]-NH2)
EC50 [1]: < 1 nM
EC50 [2]: 1 to 10 nM

CC[C@H](C)[C@H](NC(=O)[C@@H](C)NC(=O)[C@@H](N)Cc1c(C)cc(O)cc1C)C(=O)N[C@H](CC(=O)N(C)CC(N)=O)Cc1ccccc1 [compound 68] (H-[Dmt][dA]I[β3hF][Sar]-NH2)
EC50 [1]: < 1 nM
EC50 [2]: 10 to 50 nM

CC(=O)Nc1ccc(C[C@H](N)C(=O)N[C@H](C)C(=O)NCC(=O)N[C@H](CC(=O)N(C)CC(N)=O)Cc2ccccc2)cc1 [compound 59]
EC50 [1]: 10 to 50 nM
EC50 [2]: 50 to 200 nM

CC[C@H](C)[C@@H](C(=O)O)N(C)C(=O)C[C@H](Cc1ccccc1)NC(=O)CNC(=O)[C@@H](CCC(=O)O)NC(=O)[C@@H](N)Cc1c(C)cc(O)cc1C [compound 186]
EC50 [1]: 1 to 10 nM
EC50 [2]: < 1 nM

CCC[C@@H](C(=O)O)N(C)C(=O)C[C@H](Cc1ccccc1)NC(=O)CNC(=O)[C@@H](C)NC(=O)[C@@H](N)Cc1c(C)cc(O)cc1C [compound 162]
EC50 [1]: < 1 nM
EC50 [2]: < 1 nM

Cc1cc(O)cc(C)c1C[C@H](N)C(=O)N[C@H](C)C(=O)N[C@@H](CCc1ccccc1)C(=O)N(C)CC(N)=O [compound 46] (H-[Dmt][dA][hPhe][Sar]-NH2)
EC50 [1]: < 1 nM
EC50 [2]: < 1 nM

Cc1cc(O)cc(C)c1C[C@H](N)C(=O)N[C@@H](C(=O)NCC(=O)N[C@H](CC(=O)N(C)[C@@H](C)C(=O)O)Cc1ccccc1)[C@H](C)O [compound 183]
EC50 [1]: < 1 nM
EC50 [2]: < 1 nM

Cc1cc(C(N)=O)cc(C)c1C[C@H](N)C(=O)N[C@H](C)C(=O)NCC(=O)N[C@H](CC(=O)N(C)[C@@H](Cc1ccccc1)C(=O)O)Cc1ccccc1 [compound 100]
EC50 [1]: 1 to 10 nM
EC50 [2]: 1 to 10 nM

Cc1cc(O)cc(C)c1C[C@H](N)C(=O)N1Cc2ccccc2C[C@@H]1C(=O)N[C@@H](Cc1ccccc1)C(=O)N(C)CC(N)=O [compound 44] (H-[Dmt][dTic]F[Sar]-NH2)
EC50 [1]: < 1 nM
EC50 [2]: 1 to 10 nM

CCCC[C@@H](C(=O)O)N(C)C(=O)C[C@H](Cc1ccc(O)cc1)NC(=O)CNC(=O)[C@@H](C)NC(=O)[C@@H](N)Cc1c(C)cc(O)cc1C [compound 152]
EC50 [1]: < 1 nM
EC50 [2]: < 1 nM

Cc1cc(O)cc(C)c1C[C@H](N)C(=O)N[C@H](C)C(=O)NCC(=O)N[C@H](CC(=O)N(CC(N)=O)CC(F)(F)F)Cc1ccccc1 [compound 122]
EC50 [1]: < 1 nM
EC50 [2]: < 1 nM

CC[C@H](C)[C@@H](C(=O)O)N(C)C(=O)C[C@H](Cc1ccccc1)NC(=O)CNC(=O)[C@@H](C)NC(=O)[C@@H](N)Cc1c(C)cc(O)cc1C [compound 113]
EC50 [1]: < 1 nM
EC50 [2]: < 1 nM

Cc1cc(O)cc(C)c1C[C@H](N)C(=O)N[C@H](CCCNC(=N)N)C(=O)N[C@@H](Cc1ccc(-c2ccccc2)cc1)C(=O)N[C@@H](CCCCN)C(N)=O [compound 3] (H-[Dmt][dR][Bip]K-NH2)
EC50 [1]: 50 to 200 nM
EC50 [2]: > 200 nM

Cc1cc(O)cc(C)c1C[C@H](N)C(=O)N[C@H](CC(=O)O)C(=O)NCC(=O)N[C@H](CC(=O)N(C)[C@@H](Cc1ccccc1)C(=O)O)Cc1ccccc1 [compound 177]
EC50 [1]: < 1 nM
EC50 [2]: < 1 nM

Cc1cc(O)cc(C)c1C[C@H](N)C(=O)N[C@H](CC(=O)O)C(=O)NCC(=O)N[C@H](CC(=O)N(C)[C@@H](CC1CCCCC1)C(=O)O)Cc1ccccc1 [compound 175]
EC50 [1]: < 1 nM
EC50 [2]: < 1 nM

CCCC[C@@H](C(=O)O)N(C)C(=O)C[C@H](Cc1cccc(Cl)c1)NC(=O)CNC(=O)[C@@H](C)NC(=O)[C@@H](N)Cc1c(C)cc(O)cc1C [compound 151]
EC50 [1]: < 1 nM
EC50 [2]: < 1 nM

Cc1cc(O)cc(C)c1C[C@H](N)C(=O)N[C@H](C)C(=O)N[C@@H](CC(C)C)C(=O)N[C@H](CC(=O)N(C)CC(N)=O)Cc1ccccc1 [compound 67] (H-[Dmt][dA]L[β3hF][Sar]-NH2)
EC50 [1]: < 1 nM
EC50 [2]: 10 to 50 nM

CCCC[C@H](NC(=O)[C@H](CCc1ccccc1)NC(=O)[C@@H](C)NC(=O)[C@@H](N)Cc1c(C)cc(O)cc1C)C(N)=O [compound 48] (H-[Dmt][dA][hPhe][Nle]-NH2)
EC50 [1]: < 1 nM
EC50 [2]: < 1 nM

Cc1cc(C(N)=O)cc(C)c1C[C@H](N)C(=O)N[C@H](C)C(=O)NCC(=O)N1Cc2ccccc2C[C@H]1C(=O)N(C)CC(N)=O [compound 108]
EC50 [1]: 1 to 10 nM
EC50 [2]: 10 to 50 nM

CCCC[C@@H](C(=O)O)N(C)C(=O)C[C@H](Cc1c[nH]c2ccccc12)NC(=O)CNC(=O)[C@@H](C)NC(=O)[C@@H](N)Cc1c(C)cc(C(N)=O)cc1C [compound 139]
EC50 [1]: < 1 nM
EC50 [2]: 1 to 10 nM

Cc1cc(C(N)=O)cc(C)c1C[C@H](N)C(=O)N[C@H](C)C(=O)NCC(=O)N[C@H](CC(=O)NCC(N)=O)Cc1ccccc1 [compound 94]
EC50 [1]: < 1 nM
EC50 [2]: 1 to 10 nM

CC[C@H](C)[C@@H](C(=O)O)N(C)C(=O)C[C@H](Cc1ccccc1)NC(=O)CNC(=O)[C@@H](C)NC(=O)[C@@H](N)Cc1c(C)cc(C(N)=O)cc1C [compound 95]
EC50 [1]: < 1 nM
EC50 [2]: 1 to 10 nM

CCC[C@@H](C(=O)O)N(C)C(=O)C[C@H](Cc1ccccc1)NC(=O)CNC(=O)[C@@H](C)NC(=O)[C@@H](N)Cc1c(C)cc(C(N)=O)cc1C [compound 97]
EC50 [1]: < 1 nM
EC50 [2]: < 1 nM

C[C@@H](NC(=O)[C@@H](N)Cc1c[nH]c2ccc(O)cc12)C(=O)NCC(=O)N[C@H](CC(=O)N(C)CC(N)=O)Cc1ccccc1 [compound 63]
EC50 [1]: 50 to 200 nM
EC50 [2]: 50 to 200 nM

CCCC[C@@H](C(=O)O)N(C)C(=O)C[C@H](Cc1ccc(I)cc1)NC(=O)CNC(=O)[C@@H](C)NC(=O)[C@@H](N)Cc1c(C)cc(C(N)=O)cc1C [compound 136]
EC50 [1]: < 1 nM
EC50 [2]: < 1 nM

CCC[C@@H](C(=O)O)N(C)C(=O)C[C@H](Cc1ccccc1)NC(=O)CNC(=O)[C@@H](CC(=O)O)NC(=O)[C@@H](N)Cc1c(C)cc(O)cc1C [compound 174]
EC50 [1]: < 1 nM
EC50 [2]: < 1 nM

Cc1cc(O)cc(C)c1C[C@H](N)C(=O)N[C@H](CCCNC(=N)N)C(=O)N[C@@H](Cc1c[nH]cn1)C(=O)N[C@@H](CCCCN)C(N)=O [compound 4] (H-[Dmt][dR]HK-NH2)
EC50 [1]: 10 to 50 nM
EC50 [2]: > 200 nM

Cc1cc(C(N)=O)cc(C)c1C[C@H](N)C(=O)NC(C)(C)C(=O)NCC(=O)N[C@H](CC(=O)N(C)CC(N)=O)Cc1ccccc1 [compound 75]
EC50 [1]: < 1 nM
EC50 [2]: 10 to 50 nM

Cc1cc(O)cc(C)c1C[C@H](N)C(=O)N[C@H](CCC(=O)O)C(=O)NCC(=O)N[C@H](CC(=O)N(C)[C@@H](C)C(=O)O)Cc1ccccc1 [compound 185]
EC50 [1]: 1 to 10 nM
EC50 [2]: < 1 nM

Cc1cc(C(N)=O)cc(C)c1C[C@H](N)C(=O)N[C@H](C)C(=O)NCC(=O)N[C@H](CC(=O)N(C)[C@@H](CC1CCCCC1)C(=O)O)Cc1ccccc1 [compound 98]
EC50 [1]: 1 to 10 nM
EC50 [2]: 1 to 10 nM

Cc1cc(O)cc(C)c1C[C@H](N)C(=O)N[C@H](CC(=O)O)C(=O)NCC(=O)N[C@H](CC(=O)N(C)[C@@H](Cc1ccc(O)cc1)C(=O)O)Cc1ccccc1 [compound 180]
EC50 [1]: < 1 nM
EC50 [2]: < 1 nM

Cc1cc(O)cc(C)c1C[C@H](N)C(=O)N[C@H](CCCNC(=N)N)C(=O)N[C@@H](Cc1ccc(C#N)cc1)C(=O)N(C)CC(N)=O [compound 20] (H-[Dmt][dR][Phe(4-CN)][Sar]-NH2)
EC50 [1]: 1 to 10 nM
EC50 [2]: < 1 nM

Cc1cc(C(N)=O)cc(C)c1C[C@H](N)C(=O)NCC(=O)NCC(=O)N[C@H](CC(=O)N(C)CC(N)=O)Cc1ccccc1 [compound 74] (H-[Phe(2,6-Me2,4-CONH2)]GG[β3hF][Sar]-NH2)
EC50 [1]: < 1 nM
EC50 [2]: < 1 nM

Cc1cc(O)cc(C)c1C[C@H](N)C(=O)N[C@H](CC(=O)O)C(=O)NCC(=O)N[C@H](CC(=O)N(C)[C@H](C(=O)O)C(C)C)Cc1ccccc1 [compound 173]
EC50 [1]: < 1 nM
EC50 [2]: < 1 nM

Cc1cc(O)cc(C)c1C[C@H](N)C(=O)N1Cc2ccccc2C[C@H]1C(=O)NCC(=O)N[C@H](CC(=O)N(C)CC(N)=O)Cc1ccccc1 [compound 104]
EC50 [1]: 50 to 200 nM
EC50 [2]: 50 to 200 nM

Cc1cc(O)cc(C)c1C[C@H](N)C(=O)N[C@H](CC(=O)O)C(=O)NCC(=O)N[C@H](CC(=O)N(C)[C@@H](CC(C)C)C(=O)O)Cc1ccccc1 [compound 169]
EC50 [1]: < 1 nM
EC50 [2]: < 1 nM
